Key:
GATA3 protein = test: GATA3 Western Blot in transfected MCF7 cells (6-well plate); format: cell-based, human; conditions: 30 nM, 48 hours, average band ratio ± S.D.
Method: MCF7 cells were plated in 6-well plates at final counts of 70,000 cells/well in 2 ml of complete growth media. Transfection was performed using 2.5 uL of RNAiMax per well. Final concentration of siNAs was 30 nM (screen) and 30, 0.3, and 0.003 nM (dose response study). Protein lysates were harvested 24, 48, and 72 hours post-transfection (screen) and 72 hours post-transfection (dose response study). Protein lysates were prepared using Cell Disruption Buffer from the PARIS kit (Ambion, cat #1921) according to manufacturer's instructions. Protein concentration was measured using a Bradford Quick Start Kit (Bio-Rad, cat#500-0205).
The protein source for the Western Blot experiments were from transfection of MCF7 cells in a 6 well plate, as described above.
Protein samples were diluted 1:1 in 2× Laemmli buffer with 5% β-mercapto-ethanol and incubated at 95° C. for 5 minutes. 20-40 ug of protein was loaded in each lane of 10% Tris-HCl gel. One lane was designated for MagicMark Protein Standard (Invitrogen # LC5602). The gel was run at 100V for approximately 2 hours. Protein was transferred to a PVDF membrane at 100V for 60 minutes. Once the transfer was finished, the membrane was blocked in 1% Casein in PBS (BioRad Cat#161-0783) for 1 hour on a plate rocker at room temperature followed by the overnight incubation at 4° C. with mouse monoclonal anti-GATA3 primary antibody (Santa Cruz Biotechnology, cat# HG3-31) diluted 1:500 in 1% Casein in PBS. On the next day, the blot was washed 4×5 minutes in PBST (0.1% Tween-20 in PBS) solution and incubated for 30 minutes at room temperature with goat anti-mouse secondary antibody (Pierce Biotechnology, cat#3 31430) diluted 1:20,000 in 1% Casein. […]
The protein bands were quantified by computing their density which is defined by the ratio between the total intensity of all pixels and the area of the rectangle drawn around each band (intensity/mm^2). The density was calculated by the BioRad software.
The level of protein was quantified using the Bio-Rad VersaDoc Imager according to the protocols of that piece of equipment. […]

human GAPDH mRNA = test: GAPDH specificity screen in human MCF7 cells (β-Actin normalised qRT-PCR); format: cell-based; conditions: normalised to β-Actin, three experiments, mean ± S.D.
Method: A series of probes and primers were used to detect the various mRNA transcripts of the genes of β-Actin (human cell line only), and of GATA3 and GAPDH in mouse and human cell lines. All Taqman probes and primers for the experiments here-in described were supplied as pre-validated sets by Applied Biosystems, Inc. (see Table 2).
The assays were performed on an ABI 7900 instrument, according to the manufacturer's instructions. A TaqMan Gene Expression Master Mix (provided in the Cells-to-CT™, Applied Biosystems, Cat #4399002) was used. The PCR reactions were carried out at 50° C. for 2 min, 95° C. for 20 min followed by 40 cycles at 95° C. for 15 secs and 60° C. for 1 min.
The expression level of the gene of interest and % knock-down was calculated using Comparative Ct method: […]
These same three siNAs were tested for specificity in the human MCF7 cell line at 10 nM concentration to determine the effect of the GATA3 siNAs on the mRNA transcript of human GAPDH. In this assay, the samples from the primary screen, discussed above, O-Actin, a ubiquitously expressed ‘house-keeping’ gene, served as an endogenous control for normalization of the data.

30263-DC: GATA3 siNA duplex, site 817: sense B cGccucuGcuucAuGGAuc TTB (SEQ 79), antisense GAUccAuGAAGcAGAGGcGUU (SEQ 80) (sense CGCCUCUGCUUCAUGGAUCTT; antisense GAUCCAUGAAGCAGAGGCGUU; chemistry not fully specified)
Density (GATA3)/Density (α-Tubulin) (GATA3 protein): 0.016 ± 0.0003
% KD GAPDH 10 nM (human GAPDH mRNA): 11 ± 4%

Reference: patent US20120029054A1, “RNA Interference Mediated Inhibition of GATA Binding Protein 3 (GATA3) Gene Expression Using Short Intefering Nucleic Acid (siNA)” (Merck Sharp & Dohme Corp., priority 2009, published 2012)
